Source: US7951232B2, “Surface coating compositions and methods” (Elevance Renewable Sciences, Inc., priority 2006, dated 2011)
Read-outs that look alike come from different tables or passages of the source.

What was measured:
Format in all cases: cell-based
[1] = test system: Aureobasidium pullulans (ATCC 12536); assay: MIC on Potato Dextrose Agar surface; details: PDA agar, 25-30° C., least concentration that completely inhibited growth
Method: The efficacy of antimicrobial compositions in accordance with aspects of the invention against the following organisms was determined as follows. The following organisms were incubated in the presence of varying concentrations of 9-decenoic acid (9-DA) on an agar surface: Aspergillus parasiticus (ATCC 56857), Trichoderma virens (ATCC 9645), Aureobasidium pullulans (ATCC 12536), Aspergillus flavus (ATCC 96045), Cladosporium cladosporiodes (ATCC 16022), Aspergillus flavus (ATCC 5917), Aspergillus oryzae (ATCC 10124), Aspergillus parasiticus (ATCC 13539), Ulocladium atrum (ATCC 52426), Candida albicans (ATCC 11651), Alternaria alternata (ATCC 52170), Stachybotrys chartarum (ATCC 16026), Aspergillus niger (ATCC 11414).
Fungal spores were hydrated in 0.1% Tween 80 and then plated onto Potato Dextrose Agar (PDA) (Difco # 213400; Becton, Dickinson and Company, Sparks, Md.) and incubated at 25-30° C. for six (6) days. The spores were washed from the surface with 5 ml of 0.1% Tween 80 and enumerated.
PDA plates were prepared according to the manufacturer's instructions through sterilization. The agar was tempered to approximately 50° C. and was filter sterilized. […]
The agar plates were inoculated with the spore solution to achieve 10^2 spores/plate. […] The percent coverage of growth on the agar surface was recorded at each sample point.

[2] = test system: Pseudomonas aeruginosa ATCC 15442; assay: MIC and MBC determination in Mueller-Hinton Broth; details: no-growth tubes subcultured on TSA, 37±2° C., 20-24 hours
Method: Efficacy of 9-decenoic acid and the methyl ester of 9-decenoic acid against Pseudomonas aeruginosa ATCC 15442, Escherichia coli 0157:H7 ATCC 43895 and Candida albicans ATCC 10231 was measured through the determination of the minimum inhibitory concentration (MIC) and minimum bacteriocidal concentration (MBC) using the procedures in the Federal Register, June 1994 and the present NCCLS M11-A4 protocol.
Stock cultures of each organism were transferred onto Mueller-Hinton Agar (MHA) plates and incubated for 24±2 hours at 37±2° C. On the day of the test, the top of at least three to five well-isolated colonies were transferred via wire loop to a tube containing 4 to 5 ml of Trypticase Soy Broth (TSB). The TSB culture was incubated for 2 to 6 hours and turbidity was adjusted with sterile saline to achieve the turbidity of the 0.5 McFarland Standard.
The concentrated 9-decenoic acid was diluted 1:40 in Mueller-Hinton Broth (MHB) to yield a 2.5% stock solution. The test solution of the methyl ester of 9-decenoic acid was formulated in the same manner. For each organism, 12 dilutions of the 9-decenoic acid and the methyl ester of 9-decenoic acid in MHB were prepared ranging from 0.2500 to 0.0005%. A 2-ml aliquot of appropriately diluted 9-decenoic acid or the methyl ester of 9-decenoic acid solution was placed in each tube. Each tube was inoculated with 0.05 ml of a 1:10 dilution of one challenge organism. Tubes were incubated at 37±2° C. for 20-24 hours and observed for growth or no growth. […] Controls were run for sterility, viability and organism confirmation. It was determined that all cultures were viable and pure.
The MBC was defined as the concentration of 9-decenoic acid or the methyl ester of 9-decenoic acid that completely eradicated viable organisms from the test system.

[3] = test system: Penecillium verrucosum, ATCC 18381; assay: Preservative effectiveness, USP <51>
Method: The effectiveness of 9-decenoic acid on Aspergillus and Penecillium which occasionally result in in-can spoilage of paint was determined using the protocol on preservative effectiveness found in the United States Pharmacopeia (USP), 25th Edition, 2002, USP <51>.
Stock cultures of the fungi Aspergillus flavus, ATCC 9170 and Penecillium verrucosum, ATCC 18381 were cultured onto Sabouraud Dextrose Agar (SDA) and incubated at 25-30° C. for at least 1 week. The spores were washed form the agar surface with sterile saline, filtered through sterile glass wool, enumerated and stored under refrigeration for no longer than thirty days. On the day of the test, the suspension was diluted to approximately 10^8 CFU/ml.
The 9-decenoic acid was diluted in the same manner as previously described to achieve, 0.25, 0.125, 0.0625, 0.03, 0.015, 0.0078 and 0.0039% and dispensed in 20 ml aliquots in sterile test tubes. For each concentration tested, a 0.1 ml aliquot of each inoculum was added to a final concentration of 10^5 to 10^6 CFU/ml. The tubes were incubated at room temperature and sampled on days 0, 1, 2, 4, 7, 14, 21 and 28.
At each sample point, 1.0 ml aliquots were withdrawn, serially diluted and plated in triplicate on SDA. The plates were incubated at 25-30° C. for 3-7 days. The colonies were counted and the average CFU/ml was calculated. Controls for purity, viability and sterility were performed as described previously.
According to the US Pharmacopoeia, a test compound is an effective preservative if the concentrations of viable fungi remain at or below the initial concentrations during the first fourteen days and after 28 days. According to this definition, 9-decenoic acid is an effective preservative against Aspergillus flavus and Penecillium verrucosum at concentrations as low at 0.078%. […] For A. flavus, 9-decenoic acid was fungicidal at 0.015% after 21 days and at day 0 at 0.03%.

C=CCCCCCCCC(=O)O [9-decenoic acid]
MIC [1]: 0.01% | MBC [2]: 0.1250% | time after which fungicidal [3]: 2 days | Log reduction of organisms after exposure ([3]; 0.0078%, exposure 0 days): 0 log | Log reduction of organisms after exposure ([3]; 0.0078%, exposure 1 day): 0.1 log | Log reduction of organisms after exposure ([3]; 0.0078%, exposure 2 days): 0.8 log | Log reduction of organisms after exposure ([3]; 0.0078%, exposure 4 days): 0.8 log | Log reduction of organisms after exposure ([3]; 0.0078%, exposure 7 days): 0.8 log | Log reduction of organisms after exposure ([3]; 0.0078%, exposure 14 days): 0.8 log | Log reduction of organisms after exposure ([3]; 0.0078%, exposure 21 days): 1.8 log | Log reduction of organisms after exposure ([3]; 0.0078%, exposure 28 days): 1.9 log | Log reduction of organisms after exposure ([3]; 0.015%, exposure 0 days): 0.1 log | Log reduction of organisms after exposure ([3]; 0.015%, exposure 1 day): 3.0 log | Log reduction of organisms after exposure ([3]; 0.015%, exposure 2 days): 5.1 log | Log reduction of organisms after exposure ([3]; 0.015%, exposure 4 days): 5.1 log | Log reduction of organisms after exposure ([3]; 0.015%, exposure 7 days): 5.1 log | Log reduction of organisms after exposure ([3]; 0.015%, exposure 14 days): 5.1 log | Log reduction of organisms after exposure ([3]; 0.015%, exposure 21 days): 5.1 log | Log reduction of organisms after exposure ([3]; 0.015%, exposure 28 days): 5.1 log | Log reduction of organisms after exposure ([3]; 0.03%, exposure 0 days): 3.4 log | Log reduction of organisms after exposure ([3]; 0.03%, exposure 1 day): 5.1 log | Log reduction of organisms after exposure ([3]; 0.03%, exposure 2 days): 5.1 log | Log reduction of organisms after exposure ([3]; 0.03%, exposure 4 days): 5.1 log | Log reduction of organisms after exposure ([3]; 0.03%, exposure 7 days): 5.1 log | Log reduction of organisms after exposure ([3]; 0.03%, exposure 14 days): 5.1 log | Log reduction of organisms after exposure ([3]; 0.03%, exposure 21 days): 5.1 log | Log reduction of organisms after exposure ([3]; 0.03%, exposure 28 days): 5.1 log | Log reduction of organisms after exposure ([3]; 0.0625%, exposure 0 days): 4.3 log | Log reduction of organisms after exposure ([3]; 0.0625%, exposure 1 day): 5.1 log | Log reduction of organisms after exposure ([3]; 0.0625%, exposure 2 days): 5.1 log | Log reduction of organisms after exposure ([3]; 0.0625%, exposure 4 days): 5.1 log | Log reduction of organisms after exposure ([3]; 0.0625%, exposure 7 days): 5.1 log | Log reduction of organisms after exposure ([3]; 0.0625%, exposure 14 days): 5.1 log | Log reduction of organisms after exposure ([3]; 0.0625%, exposure 21 days): 5.1 log | Log reduction of organisms after exposure ([3]; 0.0625%, exposure 28 days): 5.1 log | time after which fungicidal ([3]; at 0.03%): 1 days
